How the values were obtained:
LNCaP xenografts = assay: Biodistribution in LNCaP xenografts; assay type: in vivo, mice
Procedure: All animal experiments were conducted in accordance with Swiss animal welfare laws and regulations under license number 30515 granted by the Veterinary Office, Department of Health, Canton Basel-Stadt, Switzerland. Male athymic nude-Foxn1^nu/Foxn1^+ mice (Envigo), 4–6 wk old, were inoculated subcutaneously on the shoulder with 10^7 LNCaP cells, freshly suspended in a 1:1 ratio of sterile minimum essential medium with basal medium Eagle and Matrigel. The tumors were allowed to grow to a volume of approximately 200 mm^3.
The biodistribution of [^61Cu]Cu-DOTAGA-PSMA-I&T and [^61Cu]Cu-NODAGA-PSMA-I&T (100 µL/200 pmol/2–3 MBq) was compared with that of [^68Ga]Ga-DOTAGA-PSMA-I&T, [^68Ga]Ga-NODAGA-PSMA-I&T, and [^68Ga]Ga-PSMA-11 (100 µL/200 pmol/3–5 MBq), as well as [^18F]PSMA-1007 (100 µL/70 pmol/15 MBq). This comparison was conducted at 1 h after injection for all radiotracers and at 4 h after injection for the ^61Cu-labeled tracers and [^18F]PSMA-1007. The specificity of the ^61Cu-labeled tracers was assessed at 1 h after injection by blocking studies with 2-(phosphonomethyl)pentanedioic acid (100 µL/1.3 µmol) being injected 3–5 min before the injection of the radiotracer.

LNCaP cells = assay: Cellular uptake and distribution (surface-bound, internalized) in LNCaP cells; assay type: cell-based; details: 1 h, 37°C
Procedure: The lipophilicity of [^61Cu]Cu-DOTAGA-PSMA-I&T and [^61Cu]Cu-NODAGA-PSMA-I&T was assessed by determining the distribution coefficient in a 1:1 mixture of 1-octanol–to–phosphate-buffered saline at pH 7.4, in comparison with all reference radiotracers. Inhibitory concentration of 50% (IC50) was assessed by competition binding on lymph node carcinoma of the prostate (LNCaP) using ((S)-1-carboxy-5-(4-(-^125I-iodo-benzamido)pentyl)carbamoyl)-L-glutamic acid as the reference radioligand. Cellular uptake and distribution were assessed in LNCaP cells at 5, 15, 30, 60, and 120 min after exposure to the radioligand at 37°C, either alone or in the presence of 10 µM 2-(phosphonomethyl)pentanedioic acid to distinguish between specific and nonspecific uptake.
FIGURE 1. In vitro assessment in LNCaP cells after 1 h at 37°C. (A) Competition binding activity curves of ^natCu-DOTAGA-PSMA-I&T, ^natCu-NODAGA-PSMA-I&T, and ^natGa-PSMA-11 on LNCaP cells after 1 h of incubation on ice, using ((S)-1-carboxy-5-(4-(-^125I-iodo-benzamido)pentyl)carbamoyl)-L-glutamic acid ([^125I-BA]KuE) at concentration of 0.2 nM as reference radioligand. (B) Cellular uptake (surface-bound + internalized). Cell surface–bound and internalized fractions are indicated. Results represent mean ± SD of specific (total − nonspecific) uptake from minimum of 2 separate experiments, each in triplicate.

[1] = 1 h after injection, blocking with 2-(phosphonomethyl)pentanedioic acid 1.3 µmol

For `O=C([O-])CN1CCN(CC(=O)[O-])CCN(C(CCC(=O)N[C@H](Cc2ccc(O)c(I)c2)C(=O)N[C@H](Cc2ccccc2)C(=O)N[C@H](CCCCNC(=O)CCCCCCC(=O)NCCCC[C@H](NC(=O)N[C@@H](CCC(=O)O)C(=O)O)C(=O)O)C(=O)O)C(=O)O)CC1.[61Cu+2]` (stereo partly drawn) [[^61Cu]Cu-NODAGA-PSMA-I&T, NODAGA-(l-y)fk(sub-KuE)], the “Biodistribution, Adrenals” value (LNCaP xenografts; 1 h after injection) was 17.3 ± 3.26 %IA/g, the “Biodistribution, Blood” value (LNCaP xenografts; 1 h after injection) was 0.28 ± 0.06 %IA/g and the “Biodistribution, Femur” value (LNCaP xenografts; 1 h after injection) was 2.73 ± 0.91 %IA/g. The “Biodistribution, Heart” value (LNCaP xenografts; 1 h after injection) was 0.45 ± 0.15 %IA/g, the “Biodistribution, Intestine” value (LNCaP xenografts; 1 h after injection) was 2.11 ± 0.78 %IA/g and the “Biodistribution, Kidneys” value (LNCaP xenografts; 1 h after injection) was 118 ± 13 %IA/g. The “Biodistribution, Liver” value (LNCaP xenografts; 1 h after injection) was 1.02 ± 0.28 %IA/g, the “Biodistribution, Lung” value (LNCaP xenografts; 1 h after injection) was 1.69 ± 0.45 %IA/g and the “Biodistribution, Muscles” value (LNCaP xenografts; 1 h after injection) was 1.12 ± 0.32 %IA/g. For the same compound, the “Biodistribution, Pancreas” value (LNCaP xenografts; 1 h after injection) was 0.97 ± 0.36 %IA/g, the “Biodistribution, Salivary glands” value (LNCaP xenografts; 1 h after injection) was 2.01 ± 0.33 %IA/g and the “Biodistribution, Spleen” value (LNCaP xenografts; 1 h after injection) was 6.04 ± 1.87 %IA/g. The “Biodistribution, Stomach” value (LNCaP xenografts; 1 h after injection) was 1.13 ± 0.20 %IA/g, the “Biodistribution, Tumor (tumor uptake)” value (LNCaP xenografts; 1 h after injection) was 14.0 ± 5.0 %IA/g and the Tumor-to-Adrenals ratio (LNCaP xenografts; 1 h after injection) was 0.92 ± 0.20. It also gave a Tumor-to-Blood ratio (LNCaP xenografts; 1 h after injection) of 55.8 ± 20.0, a Tumor-to-Intestine ratio (LNCaP xenografts; 1 h after injection) of 7.87 ± 2.93 and a Tumor-to-Kidneys ratio (LNCaP xenografts; 1 h after injection) of 0.13 ± 0.03. For the same compound, the Tumor-to-Liver ratio (LNCaP xenografts; 1 h after injection) was 14.9 ± 4.9, the Tumor-to-Muscles ratio (LNCaP xenografts; 1 h after injection) was 13.6 ± 3.75 and the Tumor-to-Salivary glands ratio (LNCaP xenografts; 1 h after injection) was 7.83 ± 3.16. For the same compound, the Tumor-to-Spleen ratio (LNCaP xenografts; 1 h after injection) was 2.86 ± 1.37, the “Biodistribution, Adrenals” value (LNCaP xenografts; [1]) was 0.95 ± 0.16 %IA/g and the “Biodistribution, Blood” value (LNCaP xenografts; [1]) was 0.19 ± 0.01 %IA/g. The “Biodistribution, Femur” value (LNCaP xenografts; [1]) was 0.39 ± 0.24 %IA/g, the “Biodistribution, Heart” value (LNCaP xenografts; [1]) was 0.33 ± 0.03 %IA/g and the “Biodistribution, Intestine” value (LNCaP xenografts; [1]) was 0.87 ± 0.10 %IA/g. The “Biodistribution, Kidneys” value (LNCaP xenografts; [1]) was 4.59 ± 0.35 %IA/g, the “Biodistribution, Liver” value (LNCaP xenografts; [1]) was 1.29 ± 0.21 %IA/g and the “Biodistribution, Lung” value (LNCaP xenografts; [1]) was 0.67 ± 0.06 %IA/g. The “Biodistribution, Muscles” value (LNCaP xenografts; [1]) was 0.32 ± 0.06 %IA/g, the “Biodistribution, Pancreas” value (LNCaP xenografts; [1]) was 0.28 ± 0.17 %IA/g and the “Biodistribution, Salivary glands” value (LNCaP xenografts; [1]) was 0.51 ± 0.20 %IA/g. For the same compound, the “Biodistribution, Spleen” value (LNCaP xenografts; [1]) was 0.33 ± 0.08 %IA/g, the “Biodistribution, Stomach” value (LNCaP xenografts; [1]) was 0.62 ± 0.04 %IA/g and the “Biodistribution, Tumor” value (LNCaP xenografts; [1]) was 0.68 ± 0.55 %IA/g. For the same compound, the “Biodistribution, Adrenals” value (LNCaP xenografts; 4 h after injection) was 8.32 ± 2.87 %IA/g, the “Biodistribution, Blood” value (LNCaP xenografts; 4 h after injection) was 0.10 ± 0.03 %IA/g and the “Biodistribution, Femur” value (LNCaP xenografts; 4 h after injection) was 1.34 ± 0.48 %IA/g. For the same compound, the “Biodistribution, Heart” value (LNCaP xenografts; 4 h after injection) was 0.22 ± 0.05 %IA/g, the “Biodistribution, Intestine” value (LNCaP xenografts; 4 h after injection) was 1.06 ± 0.50 %IA/g and the “Biodistribution, Kidneys” value (LNCaP xenografts; 4 h after injection) was 90.9 ± 10.1 %IA/g. For the same compound, the “Biodistribution, Liver” value (LNCaP xenografts; 4 h after injection) was 0.72 ± 0.11 %IA/g, the “Biodistribution, Lung” value (LNCaP xenografts; 4 h after injection) was 0.74 ± 0.19 %IA/g and the “Biodistribution, Muscles” value (LNCaP xenografts; 4 h after injection) was 0.50 ± 0.22 %IA/g. The “Biodistribution, Pancreas” value (LNCaP xenografts; 4 h after injection) was 0.45 ± 0.09 %IA/g, the “Biodistribution, Salivary glands” value (LNCaP xenografts; 4 h after injection) was 0.52 ± 0.06 %IA/g and the “Biodistribution, Spleen” value (LNCaP xenografts; 4 h after injection) was 1.28 ± 0.39 %IA/g. The “Biodistribution, Stomach” value (LNCaP xenografts; 4 h after injection) was 0.66 ± 0.15 %IA/g, the “Biodistribution, Tumor (tumor uptake)” value (LNCaP xenografts; 4 h after injection) was 10.7 ± 3.3 %IA/g and the Tumor-to-Adrenals ratio (LNCaP xenografts; 4 h after injection) was 1.44 ± 0.65. For the same compound, the Tumor-to-Blood ratio (LNCaP xenografts; 4 h after injection) was 109 ± 43, the Tumor-to-Intestine ratio (LNCaP xenografts; 4 h after injection) was 12.5 ± 6.7 and the Tumor-to-Kidneys ratio (LNCaP xenografts; 4 h after injection) was 0.12 ± 0.03. The Tumor-to-Liver ratio (LNCaP xenografts; 4 h after injection) was 15.4 ± 5.7, the Tumor-to-Muscles ratio (LNCaP xenografts; 4 h after injection) was 25.4 ± 12.0 and the Tumor-to-Salivary glands ratio (LNCaP xenografts; 4 h after injection) was 19.5 ± 7.1. The Tumor-to-Spleen ratio (LNCaP xenografts; 4 h after injection) was 9.16 ± 3.84, the “Cellular uptake (surface-bound + internalized)” value (LNCaP cells; specific uptake) was 22.4% ± 3.3% and the Internalized fraction (LNCaP cells; % of applied activity) was 11.7 ± 1.6%. The Surface-bound fraction (LNCaP cells; % of applied activity) was 10.8 ± 1.8%.

Reference: PMC11372264, “^61Cu-PSMA–Targeted PET for Prostate Cancer: From Radiotracer Development to First-in-Human Imaging” (Journal of Nuclear Medicine, 2024)
